From patent publication US20170334959A1 (priority 2015, published 2017) come the findings set out here.

Entries after “also recorded” stand apart in the source; their conditions may differ. No end group written: not given here. Some results are limits rather than exact numbers.

For assay [1], the target named is human Nav1.6 (Homo sapiens, UniProt Q9UQD0). Format: cell-based.
For assay [2], the target named is human Nav1.7 (Homo sapiens, UniProt Q15858, W1161R). Type of assay: cell-based. The settings on record: read-out: Nav1.7 IC50.
Assay [3] concerns formalin-induced flinching (injury-induced pain). As to conditions: rat, in vivo.
The test system of assay [4] is acute thermal pain (hot plate latency). As to conditions: in vivo.
The test system of assay [5] is carrageenan-induced thermal hyperalgesia. Also on record: species or system mice. The settings on record: mouse, in vivo.
In assay [6] the test system is CFA-induced thermal hyperalgesia. Also on record: species or system mice. The settings on record: mouse, in vivo.
The test system of assay [7] is thermal withdrawal latency. Also on record: species or system mice. The settings on record: mouse, in vivo.
Assay [8] relates to acute thermal pain (tail withdrawal latency). As to conditions: in vivo.
The test system of assay [9] is CFA-induced tactile allodynia. Also noted: species or system mice. As to conditions: mouse, in vivo.

A word on the IC50: it is the concentration at which inhibition is half-maximal.

Sequence of human Nav1.6 (Q9UQD0 whole entry): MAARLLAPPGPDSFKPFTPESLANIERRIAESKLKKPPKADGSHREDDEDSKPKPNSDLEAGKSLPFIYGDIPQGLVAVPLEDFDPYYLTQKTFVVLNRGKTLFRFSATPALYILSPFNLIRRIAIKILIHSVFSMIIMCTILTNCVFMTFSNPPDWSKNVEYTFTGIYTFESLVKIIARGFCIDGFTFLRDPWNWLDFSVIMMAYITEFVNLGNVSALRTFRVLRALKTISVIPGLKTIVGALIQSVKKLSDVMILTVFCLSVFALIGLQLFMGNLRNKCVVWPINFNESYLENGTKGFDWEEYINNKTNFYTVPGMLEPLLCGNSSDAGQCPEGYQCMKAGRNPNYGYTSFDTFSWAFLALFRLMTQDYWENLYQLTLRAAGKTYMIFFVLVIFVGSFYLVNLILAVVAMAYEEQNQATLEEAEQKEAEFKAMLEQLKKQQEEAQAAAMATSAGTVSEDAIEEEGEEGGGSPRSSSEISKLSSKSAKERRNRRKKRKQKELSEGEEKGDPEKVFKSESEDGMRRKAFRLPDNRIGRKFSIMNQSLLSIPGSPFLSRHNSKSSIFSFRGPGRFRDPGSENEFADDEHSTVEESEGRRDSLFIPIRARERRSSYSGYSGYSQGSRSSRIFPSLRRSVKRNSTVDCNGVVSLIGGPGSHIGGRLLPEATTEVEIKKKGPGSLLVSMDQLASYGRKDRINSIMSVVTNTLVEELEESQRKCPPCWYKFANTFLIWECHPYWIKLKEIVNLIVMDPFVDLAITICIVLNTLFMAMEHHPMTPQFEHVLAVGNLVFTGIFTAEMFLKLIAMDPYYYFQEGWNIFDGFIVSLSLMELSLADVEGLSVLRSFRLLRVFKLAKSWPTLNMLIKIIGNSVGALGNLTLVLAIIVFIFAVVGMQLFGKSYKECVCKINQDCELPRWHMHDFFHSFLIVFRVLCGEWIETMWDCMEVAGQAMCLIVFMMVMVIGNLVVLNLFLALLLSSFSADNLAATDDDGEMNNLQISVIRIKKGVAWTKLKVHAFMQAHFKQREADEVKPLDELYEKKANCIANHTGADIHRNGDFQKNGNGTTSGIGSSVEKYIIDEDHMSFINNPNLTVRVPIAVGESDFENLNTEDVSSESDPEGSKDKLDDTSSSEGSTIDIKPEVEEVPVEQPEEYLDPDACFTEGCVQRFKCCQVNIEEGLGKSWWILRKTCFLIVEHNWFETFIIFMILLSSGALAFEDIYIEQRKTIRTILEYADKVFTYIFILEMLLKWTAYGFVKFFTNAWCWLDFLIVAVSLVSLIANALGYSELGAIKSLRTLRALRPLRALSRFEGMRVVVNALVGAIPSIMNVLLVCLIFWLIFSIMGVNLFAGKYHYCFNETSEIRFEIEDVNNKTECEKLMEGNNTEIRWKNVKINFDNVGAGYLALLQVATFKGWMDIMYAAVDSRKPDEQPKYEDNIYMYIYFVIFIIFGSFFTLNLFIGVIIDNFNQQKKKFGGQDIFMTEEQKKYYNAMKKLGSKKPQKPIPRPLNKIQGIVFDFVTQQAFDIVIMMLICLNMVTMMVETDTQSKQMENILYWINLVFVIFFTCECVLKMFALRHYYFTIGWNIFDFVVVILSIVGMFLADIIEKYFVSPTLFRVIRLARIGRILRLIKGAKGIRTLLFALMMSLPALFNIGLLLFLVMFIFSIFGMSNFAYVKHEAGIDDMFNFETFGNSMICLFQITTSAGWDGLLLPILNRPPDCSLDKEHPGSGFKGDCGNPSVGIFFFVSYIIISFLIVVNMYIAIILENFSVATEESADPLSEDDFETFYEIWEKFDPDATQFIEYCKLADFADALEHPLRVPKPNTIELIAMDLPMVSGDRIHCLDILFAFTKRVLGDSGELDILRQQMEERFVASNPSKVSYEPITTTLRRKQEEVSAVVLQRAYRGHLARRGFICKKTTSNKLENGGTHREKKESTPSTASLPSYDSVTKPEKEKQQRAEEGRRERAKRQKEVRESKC

Take “Ac-QCQKWMQTCDAERKCCEGFSCTLWCKKKLW-NH2 [(-GP) N-Ac-NV1D2974-NH2]”: in [1], the “selectivity for Nav1.7 compared to recombinant Protoxin-II” value (from here on “selectivity … to recombinant Protoxin-II”) is given as “improved selectivity”. On the same count and under the same terms, the same measure for “Ac-QCQKWMQTCDRERKCCEGFVCTLWCRKKLW-NH2 [(-GP) N-Ac-NV1D3034-NH2]”: “improved selectivity”; for “GPACQKWMQTCDANRKCCEGFSCRLWCKKKLW-OH (cysteine pairing not given here) [NV1D3587]”: “improved selectivity”. Take “GPACQKWMQTCDRNRKCCEGFVCTLWCRKKLW-OH (cysteine pairing not given here) [NV1D3541]”: the “selectivity … to recombinant Protoxin-II” value in assay [1] is “improved selectivity”. As for “GPCCNCSSKWCRDHSRCCGRGSAPAPAPAPAPAPAPAPAPAPGSQCQKWMQTCDAERKCCEGFVCRLWCKKKLW [NV1D3260]”, the IC50 in assay [2] came out at 57.6 nM. “GPCCNCSSKWCRDHSRCCGRGSAPAPAPAPAPAPAPAPAPAPGSQCQKWMQTCDRERKCCEGFVCTLWCRKKLW [NV1D3793]”: the IC50 in assay [2] was 64.6 nM. As for “GPCCNCSSKWCRDHSRCCGRGSAPAPAPAPAPGSQCQKWMQTCDAERKCCEGFVCRLWCKKKLW [NV1D3256]”, the IC50 in assay [2] is 55.7 nM. With “GPCCNCSSKWCRDHSRCCGRGSGGGGSAPAPAPAPAPAPAPAPAPAPGGGGSGSQCQKWMQTCDRERKCCEGFVCTLWCRKKLW [NV1D3830]”, in [2], the IC50 stood at 88.6 nM. As for “GPCCNCSSKWCRDHSRCCGSAPAPAPAPAPAPAPAPAPAPGSQCQKWMQTCDAERKCCEGFVCRLWCKKKLW [NV1D3262]”, the IC50 in [2] was determined as 89.2 nM. With “GPCCNCSSKWCRDHSRCCGSAPAPAPAPAPAPAPAPAPAPGSQCQKWMQTCDRERKCCEGFVCTLWCRKKLW [NV1D3795]”, in [2], the IC50 came out at 100 nM.

Consider “GPCCNCSSKWCRDHSRCCGSAPAPAPAPAPGSQCQKWMQTCDRERKCCEGFVCTLWCRKKLW [NV1D3796]”, for which the IC50 in [2] came to 110 nM.

Take “GPCRTIGPSVCAPAPAPAPAPAPAPAPAPAPQCQKWMQTCDRERKCCEGFVCTLWCRKKLW [NV1D3832]”: in assay [2], the IC50 was determined as 88.4 nM. Still for that read-out and setting: then “GPGWCGDPGATCGKLRLYCCSGFCDAYTKTCKDKSSAGGGGSAPAPAPAPAPAPAPAPAPAPAPAPAPAPAPGGGGSQCQKWMQTCDRERKCCEGFVCTLWCRKKLW [NV1D3824]”, with 110 nM; and “GPGWCGDPGATCGKLRLYCCSGFCDSYTKTCKDKSSAGGGGSAPAPAPAPAPAPAPAPAPAPAPAPAPAPAPGGGGSQCQKWMQTCDRERKCCEGFVCTLWCRKKLW [NV1D3822]”, with 74.2 nM; and “GPQCQDWMQTCDRERDCCEGFVCTLWCRKKLW-OH (cysteine pairing not given here) [NV1D3379]”, with 31.6 nM. As for “GPQCQKWMQSCDRERKCCEGFVCTLWCRKKLW-OH (cysteine pairing not given here) [NV1D3359]”, the “selectivity … to recombinant Protoxin-II” value in assay [1] is recorded as “improved selectivity”. Still for that read-out and setting: then “GPQCQKWMQTCDAERKCCEGFSCTLWCKKKLW-NH2 [NV1D2974-NH2]”, with “improved selectivity”; and “GPQCQKWMQTCDAERKCCEGFSCTLWCKKKLW-OH (cysteine pairing not given here) [NV1D2974]”, with “improved selectivity”. Same read-out and setting: then “GPQCQKWMQTCDAERKCCEGFVCRLWCKKKLW-NH2 [NV1D2775-NH2]”, with “improved selectivity”. Consider “GPQCQKWMQTCDAERKCCEGFVCRLWCKKKLW-OH (cysteine pairing not given here) [NV1D2775]”, for which the “efficacy in the formalin test (flinches)” value in [3] is “significant efficacy”. Besides, in [4], the “efficacy in the hot plate test” value is given as “significant efficacy”. Also, in assay [5], the “analgesia in the carrageenan study (thermal withdrawal latency)” value is “significant analgesia” and the “protection from carrageenan-induced thermal hyperalgesia” value is given as “fully protected”. In assay [6], the “efficacy in the CFA model / reversal of CFA-induced thermal hyperalgesia” value (“efficacy in the CFA model / reversal” below) was “strong efficacy”, the “thermal latencies in the CFA model” value is “close to the cut-off”, the “time at which anti-hyperalgesic effect was first seen post-pump implantation” value was at most 4 h and the “time by which thermal latency returned to the control level post pump implantation” value is at most 48 h. Also, the “time of maximum effect, thermal test” value in [6] stood at 8 h. Moreover, in [7], the “efficacy in the hot plate test” value is listed as “strong, dose-dependent efficacy; also recorded: significant analgesia”; the “hotplate latencies at 50 and 55° C.” value is given as “near cut-off”; the “hotplate thermal latency compared to the PBS control” value is reported as “modest yet significant increase”. In addition, the “efficacy in the tail flick test” value in assay [8] was “significant efficacy”. In addition, in assay [9], the “reversal of CFA-induced tactile allodynia” value is “reversed”; the “time by which tactile threshold returned to the control level post pump implantation” value is listed as at most 48 h; the “time of maximum effect, tactile test” value turned out to be 8 h. The “selectivity … to recombinant Protoxin-II” value in assay [1] is given as “improved selectivity”. Take “GPQCQKWMQTCDAERKCCEGFVCRLWCKKKLWGSAPAPAPAPAPAPAPAPAPAPGSCCNCSSKWCRDHSRCCGR [NV1D3259]”: in [2], the IC50 worked out at 54.9 nM. Turning to “GPQCQKWMQTCDARRKCCEGFVCRLWCKKKLW-OH (cysteine pairing not given here) [NV1D3006]”, the “selectivity … to recombinant Protoxin-II” value in assay [1] was “improved selectivity”. Same read-out and setting: the same measure for “GPQCQKWMQTCDRERKCCEGFVCTLWCRKKLW-NH2 [NV1D3034-NH2]”: “improved selectivity”. Take “GPQCQKWMQTCDRERKCCEGFVCTLWCRKKLW-NH-butyl [NV1D3034-NH-butyl]”: the “selectivity … to recombinant Protoxin-II” value in assay [1] was “improved selectivity”. For “GPQCQKWMQTCDRERKCCEGFVCTLWCRKKLW-NH-methyl [NV1D3034-NH-methyl]”, the “efficacy in the CFA model / reversal” value in [6] is listed as “readily reversed”. The “Thermal MPE %” value in assay [6] (sc) is reported as 49 ± 17%. In [1], the “selectivity … to recombinant Protoxin-II” value is recorded as “improved selectivity”. In the case of “GPQCQKWMQTCDRERKCCEGFVCTLWCRKKLW-OH (cysteine pairing not given here) [NV1D3034]”, in [3], the “efficacy in the formalin test (flinches)” value is “significant efficacy”. Also, in [4], the “efficacy in the hot plate test” value is given as “significant efficacy”. The “reversal of CFA-induced thermal hyperalgesia” value in assay [6] (sc) was “completely reversed”. For the same substance, the “efficacy in the tail flick test” value in [8] is given as “significant efficacy”. Take “GPQCQKWMQTCDRERKCCEGFVCTLWCRKKLWGGGGSAPAPAPAPAPAPAPAPAPAPAPAPAPAPAPGGGGSGWCGDPGATCGKLRLYCCSGFCDAYTKTCKDKSSA [NV1D3825]”: the half-maximal inhibitory concentration (IC50) in assay [2] was 194 nM.

Take “GPQCQKWMQTCDRERKCCEGFVCTLWCRKKLWGSAPAPAPAPAPAPAPAPAPAPGSCCNCSSKWCRDHSRCC [NV1D3797]”: in [2], the IC50 was found to be 91.1 nM.

In the case of “GPQCQKWMQTCDRERKCCEGFVCTLWCRKKLWGSAPAPAPAPAPAPAPAPAPAPGSCCNCSSKWCRDHSRCCGR [NV1D3798]”, the IC50 in assay [2] was found to be 94.5 nM.

Consider “GPQCQKWMQTCDRERKCCEGFVCTLWCRKKLWGSAPAPAPAPAPGSCCNCSSKWCRDHSRCC [NV1D3799]”, for which the IC50 in [2] came out at 50.6 nM. On the same count and under the same terms, then “GPQCQKWMQTCDRERKCCEGFVCTLWCRKKLWGSAPAPAPAPAPGSCCNCSSKWCRDHSRCCGR [NV1D3800]”, with 60.9 nM; and “GPQCQKWMQTCDRERKCCEGFVCTLWCRKKLWGSGGGGSAPAPAPAPAPAPAPAPAPAPGGGGSGSCCNCSSKWCRDHSRCC [NV1D3829]”, with 122 nM.

As to “GPQCQKWMQTCDRERKCCEGFVCTLWCRKKLWGSGGGGSAPAPAPAPAPAPAPAPAPAPGGGGSGSCCNCSSKWCRDHSRCCGR [NV1D3828]”, the IC50 in assay [2] was determined as 87.5 nM. In the case of “GPQCQKWMQTCDRERKCCQGFVCTLWCRKKLW-OH (cysteine pairing not given here) [NV1D3388]”, in assay [1], the “selectivity … to recombinant Protoxin-II” value is “improved selectivity”. On to “GPQCQKWMQTCDRNRKCCEGFVCTLWCRKKLW-OH (cysteine pairing not given here) [NV1D3044]”, for which the “selectivity … to recombinant Protoxin-II” value in assay [1] is recorded as “improved selectivity”. In the case of “GPQCQKWMQTCDRTRKCCEGFVCTLWCRKKLW-NH2 [NV1D3368-NH2]”, the “efficacy in the CFA model / reversal” value in assay [6] is given as “readily reversed”. In addition, the “selectivity … to recombinant Protoxin-II” value in [1] is given as “improved selectivity”. For “GPQCQKWMQTCDRTRKCCEGFVCTLWCRKKLW-OH (cysteine pairing not given here) [NV1D3368]”, the “reversal of CFA-induced thermal hyperalgesia” value in assay [6] (sc) is recorded as “fully reversed”. Besides, in assay [1], the “selectivity … to recombinant Protoxin-II” value is “improved selectivity”. With “GPRCQKWMQTCDAERKCCEGFVCRLWCKKKLW-OH (cysteine pairing not given here) [NV1D2772]”, the “selectivity … to recombinant Protoxin-II” value in assay [1] is “improved selectivity”. The same measure, in the same setting: then “GPSCQKWMQTCDAERKCCEGFVCRLWCKKKLW-OH (cysteine pairing not given here) [NV1D2773]”, with “improved selectivity”. In the case of “GPSHSNTQTLAKAPEHTGAPAPAPAPAPAPAPAPAPAPQCQKWMQTCDRERKCCEGFVCTLWCRKKLW [NV1D3774]”, the IC50 in assay [2] was 88.6 nM.

Consider “GPYCQKWMQTCDANRKCCEGFSCRLWCKKKLW-NH2 [NV1D3586-NH2]”, for which the “selectivity … to recombinant Protoxin-II” value in assay [1] was “improved selectivity”. For “GPYCQKWMQTCDANRKCCEGFSCRLWCKKKLW-OH (cysteine pairing not given here) [NV1D3586]”, the “selectivity … to recombinant Protoxin-II” value in assay [1] is reported as “improved selectivity”. Regarding “GPYCQKWMQTCDSERKCCEGMVCRLWCKKKLL-OH (cysteine pairing not given here) [compound 63955918]”, the “efficacy in the formalin test (flinches)” value in assay [3] was “less flinches”. For the same substance, the “efficacy in the hot plate test” value in assay [4] is “potent and prolonged analgesia”. Further, in [8], the “efficacy in the tail flick test” value was “potent and prolonged analgesia”. With “GPYCQKWMWTCDSERKCCEGMVCRLWCKKKLW-COOH [NV1D12, reference compound]”, the “selectivity, ratio IC50(Nav1.6)/IC50(Nav1.7) in QPatch” value in assay [1] is given as “about 28 fold”.
